In PubChem BioAssay (NCI):
Several values for one entry are separate records, joined by “and”; a condition that tells them apart may be missing. Equal values may be shown once.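 Protocol summary: plate cells (96-well), add compound at 5 concentrations, incubate 48 h, interpolate endpoints linearly. The concentration for 50% growth inhibition is given as GI50. TGI marks complete inhibition of growth.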

Assays:
Test in all cases: DTP human tumour cell line panel, 48 h
OVCAR-5 ovarian = test system: OVCAR-5 ovarian
HCT-15 colon = test system: HCT-15 colon
K-562 leukemia = test system: K-562 leukemia
SNB-75 CNS = test system: SNB-75 CNS
IGROV1 ovarian = test system: IGROV1 ovarian
OVCAR-8 ovarian = test system: OVCAR-8 ovarian
NCI-H23 lung = test system: NCI-H23 lung
786-0 renal = test system: 786-0 renal
COLO 205 colon = test system: COLO 205 colon
RXF 393 renal = test system: RXF 393 renal

| Compound | GI50 (OVCAR-5 ovarian) | TGI (OVCAR-5 ovarian) [µM] | GI50 (HCT-15 colon) | TGI (HCT-15 colon) [µM] | GI50 (K-562 leukemia) | TGI (K-562 leukemia) [µM] | GI50 (SNB-75 CNS) | TGI (SNB-75 CNS) | GI50 (IGROV1 ovarian) | TGI (IGROV1 ovarian) | GI50 (OVCAR-8 ovarian) [µM] | TGI (OVCAR-8 ovarian) [µM] | GI50 (NCI-H23 lung) | TGI (NCI-H23 lung) [µM] | GI50 (786-0 renal) | TGI (786-0 renal) [µM] | GI50 (COLO 205 colon) | TGI (COLO 205 colon) [µM] | GI50 (RXF 393 renal) | TGI (RXF 393 renal) |
| --- | --- | --- | --- | --- | --- | --- | --- | --- | --- | --- | --- | --- | --- | --- | --- | --- | --- | --- | --- | --- |
| Cc1ccc2c(ccc3c[n+]4c5ccccc5ccc4n32)c1 | 4.42 µM | 45.1 | 7.33 µM | > 100 | 0.584 µM | 14.4 | 1.18 µM | 8.05 µM | 1.52 µM | 18.6 µM | 0.688 | 9.72 | 0.606 µM | 3.51 | 2.56 µM | 14.8 | 0.485 µM | 2.35 | 2.52 µM | 8.81 µM |
| NC(=S)N/N=C(/CC(=O)c1ccccc1)C(=O)Nc1ccc(Cl)c(Cl)c1 |  | > 100 |  | > 100 |  | > 100 |  | > 100 µM |  | > 100 µM |  | > 100 |  | > 100 |  | > 100 |  | > 100 |  | > 100 µM |
| CC(C)(C)C#CC1=C(Br)C(=O)OC1 |  | 0.608 | 1.6 µM | > 22.3 | 0.841 µM |  | 37.7 µM | > 100 µM | 4.97 µM | 23.2 µM | 2.54 | 12.7 | 2.16 µM | 19 | 2.27 µM | 5.96 | 31.6 µM | > 100 | 2.44 µM | 6.8 µM |
| Cc1ccc(C(=O)O/N=C2/CCC/C2=C\c2ccccc2)cc1 |  | > 100 |  | > 100 |  | > 100 |  | > 100 µM |  | > 100 µM |  | > 100 |  | > 100 |  | > 100 |  | > 100 |  | > 100 µM |
| CCN1C(=O)N(CC)C2C1NN=c1s/c(=C\c3cccnc3)c(=O)n12 (configuration not stated) | 1.97 µM | > 100 | 0.414 µM | > 100 | 0.3 µM | > 100 | 0.116 µM |  | 0.843 µM | > 100 µM | 0.823 | > 100 | 0.689 µM | > 100 | 0.695 µM | > 100 | 0.392 µM | > 53.3 | 0.271 µM | 3.35 µM |
| CNC(=O)n1ccc2cc(Oc3ccnc(NC(=O)c4ccc(C5CCN(CCO)CC5)cc4)c3)c(OCCOC)cc21 | 8.43 µM | 22.7 | 4.42 µM | 15.6 | 0.529 µM | 10.6 | 1.84 µM | 7.28 µM | 5.65 µM | 20.7 µM | 4.51 | 19.5 | 10.5 µM | 24.4 | 1.94 µM | 4.38 | 2.83 µM | 8.6 | 1.34 µM | 3.09 µM |
| COc1c(CCC[P+](c2ccccc2)(c2ccccc2)c2ccccc2)cc2c(c1OC)OCO2 | 2.74 µM | 81.2 | 14.7 µM | 71.1 | 0.529 µM | > 100 | 1.3 µM | 5.18 µM | 1.02 µM | 10.7 µM | 2.66 | > 100 | 2.19 µM | 10.3 | 3.91 µM | 26.9 | 1.21 µM | 5.71 | 2.05 µM | 11.6 µM |
| CCCCOc1ccc(NC(N)=Nc2ccc(Cl)cc2)cc1 |  | 19.9 |  | 23.1 |  | 11.6 |  | 15.3 µM |  | 21.3 µM |  | 25 |  | 17.3 |  | 23.2 |  | 0.26 |  | 25.5 µM |
| Cc1cc(N(CCC#N)S(=O)(=O)c2ccccc2)ccc1/C=C1N=C(/C=C/c2ccccc2)OC\1=O |  | > 100 |  | > 100 |  | > 100 |  | > 100 µM |  | > 100 µM |  | > 100 |  | > 100 |  | > 100 |  | > 100 |  | > 100 µM |
| CCCCCCCCCc1cc(=O)c2ccc(OCc3ccccc3)cc2o1 |  | > 100 |  | > 100 |  | > 100 |  | 72.3 µM |  | > 100 µM |  | > 100 |  | > 100 |  | > 100 |  | > 100 |  | > 100 µM |
| CCN(Cc1ccc(F)c(F)c1)c1ccc(CO)c(Cl)c1 | 0.0592 µM | 0.306 | 6.63 µM | 25 | 1.37 µM | 21.5 | 2.99 µM | 19.5 µM | 0.098 µM | 0.477 µM | 11.9 | 27.9 | 6.7 µM | 27.1 | 5.44 µM | 22.9 | 2.32 µM | 7.48 | 2.73 µM | 15.9 µM |
| N#Cc1cnc2cc(OC[C@H](O)CO)c(NC(=O)CC3CSSC3)cc2c1Nc1ccc(OCc2cccc(F)c2)c(Cl)c1 | 0.872 µM | 1.89 | 3.96 µM | 13.2 | 0.122 µM | 0.361 | 0.879 µM | 1.74 µM | 0.446 µM | 1.39 µM | 1.02 | 2.28 | 0.772 µM | 1.7 | 1.76 µM | 9.6 | 0.883 µM | 1.81 | 0.987 µM | 1.85 µM |
| C=C1C(=O)O[C@H]2[C@H]1CC/C(COC(=O)NCc1ccccc1OC)=C\CC[C@@]1(C)O[C@@H]21 | 2.29 µM | 5.44 | 1.04 µM | 2.47 | 0.821 µM | 6.07 | 2.44 µM | 13.2 µM | 1.57 µM | 4.36 µM | 2.45 | 8.38 | 1.74 µM | 4.11 | 1.16 µM | 2.74 | 1.75 µM | 3.72 | 1.04 µM | 2.57 µM |
| COc1cccc(/C=C/C(=O)c2cccc(Nc3nc(Nc4ccccc4)nc(Nc4ccccc4)n3)c2)c1 | 26.8 µM | > 86.3 | 9.59 µM | > 100 | 3.96 µM | 45.8 | 11.8 µM | > 94.8 µM | 5.47 µM | 33.2 µM | 9.91 | > 100 | 21.3 µM | > 100 | 18.6 µM | > 65.5 | 10.5 µM | 42.3 | 10.7 µM | 35.6 µM |
| O=C(c1ccc(F)cc1)c1cccc(C(=O)c2ccc(F)cc2)n1 |  | > 100 |  | > 100 |  | > 100 |  | 22.7 µM |  | 79.3 µM |  | > 100 |  | 55.7 |  | 77.1 |  | > 100 |  | 33.4 µM |
| COc1cc(C2c3cc4c(cc3OC(N3CCCC3)C2C)OCO4)cc(OC)c1OC (configuration not stated) |  | > 47.9 |  | 13 |  | > 19.1 |  | 9.4 µM |  | 30.2 µM |  | 9.82 |  | 7.27 |  | 30 |  | 1.03 |  | 2.41 µM |
| O=C1OC(=O)C(c2c[nH]c3ccccc23)=C1c1c[nH]c2ccccc12 | > 25 µM | > 25 | > 25 µM | > 25 | > 25 µM | > 25 | > 25 µM | > 25 µM | > 25 µM | > 25 µM | > 25 | > 25 | > 25 µM | > 25 | > 25 µM | > 25 | > 25 µM | > 25 | > 25 µM | > 25 µM |
| CCOC(=O)C1=C(C)N(Cc2ccccc2)C(C)=C(C(=O)OCC)C1c1ccccc1O |  | > 100 |  | > 100 |  | > 100 |  | > 100 µM |  | > 100 µM |  | > 100 |  | 57.7 |  | > 100 |  | 31.4 |  | 60.2 µM |
| CC(=O)NC(CCCNCc1ccccc1)C(=O)NCc1ccccc1 (configuration not stated) |  | > 100 |  | > 100 |  | > 100 |  | > 100 µM |  | > 100 µM |  | > 100 |  | > 100 |  | > 100 |  | > 100 |  | > 100 µM |
| CCN(CC)CCn1ccc(=O)c2cc3c(=O)ccn(CCN(CC)CC)c3c(C)c21 |  | 29.9 |  | 15.6 |  | 26.8 |  | 22.7 µM |  | 22 µM |  | 15.5 |  | 19.3 |  | 8.56 |  | 15.3 |  | 14.1 µM |
| COc1nc(NC2OCC(OC(C)=O)C(OC(C)=O)C2OC(C)=O)c(N=CC=Nc2c(NC3OCC(OC(C)=O)C(OC(C)=O)C3OC(C)=O)nc(OC)n(C)c2=O)c(=O)n1C (configuration not stated) |  | > 100 |  | > 100 |  | > 100 |  | > 100 µM |  | > 100 µM |  | > 100 |  | > 100 |  | > 100 |  | > 100 |  | > 100 µM |
| COC(=O)[C@@H](C)C[C@H](Cc1ccccc1)NC(=O)c1nc([C@@H](C[C@H](C(C)C)N(C)C(=O)[C@@H](NC(=O)[C@H]2CCCCN2C)C(C)C)OC(C)=O)sc1C | 0.00478 µM | > 16.7 | 0.00536 µM | > 16.7 | < 0.00167 µM | > 16.7 | < 0.00167 µM | > 7.57 µM | 0.0017 µM | > 16.7 µM | < 0.00167 | > 16.7 | 0.00302 µM | > 16.7 | < 0.00167 µM | > 16.7 | < 0.00167 µM | 0.00926 | < 0.00167 µM | > 16.7 µM |
| C[C@@H](C(=O)Nc1ccc(Cl)cc1)C1CCC(c2ccnc3ccc(F)cc23)CC1 (some centres not stated) | 17.8 µM | > 100 | 8.32 µM | > 100 | 5.1 µM | 67.4 | 12.5 µM | 92.3 µM | 9.11 µM | > 100 µM | 21 | > 100 | 3.93 µM | 56.4 | 4.31 µM | > 100 | 8.8 µM | 34 | 3.6 µM | 26.7 µM |
| CC(C)NC[C@@H](C(=O)N1CCN(c2ncnc3c2[C@H](C)C[C@H]3O)CC1)c1ccc(Cl)cc1 | > 10 µM and 29.8 µM | > 100 | > 10 µM and 44.8 µM | > 100 | > 10 µM and 48.1 µM | > 100 | 0.285 µM and 0.213 µM | > 10 µM and 5.44 µM | 0.156 µM and 0.203 µM | 0.731 µM and 3.02 µM | > 100 | > 100 | > 10 µM and 31.2 µM | > 100 | 0.334 µM and 0.546 µM | > 100 | 3.48 µM and 7.6 µM | > 100 | 0.293 µM and 0.341 µM | 4.85 µM and 5.55 µM |
| COC(=O)CCC(NC(=S)N/N=C(\C)c1nccs1)C(=O)OC (configuration not stated) |  | > 100 |  | > 100 |  | > 100 |  | > 100 µM |  | > 100 µM |  | > 100 |  | > 100 |  | > 100 |  | 34.1 |  | > 100 µM |
